Laboratory results as given in PMC5201116, “Bioactive Flavonoids and Catechols as Hif1 and Nrf2 Protein Stabilizers - Implications for Parkinson’s Disease” (Aging and Disease, 2016).

Tests used:
[1] = system: C57Bl6 mice, MPTP model of Parkinson's disease; assay: Stereological counts of Nissl- and TH-positive neurons in SNpc, MPTP model; format: in vivo, mouse; details: NDGA 100mg/kg/day, Fig. 7
Method: Acute MPTP-intoxication paradigm was used to test the neuroprotective effects of NDGA using male C57Bl6 mice. In this protocol, 10-week-old C57Bl6 mice (n = 8-10 per group) were divided into four different groups consisting of 1) a control group treated with saline alone; 2) a group treated with MPTP alone; 3) a group treated with NDGA alone and; 4) group treated with NDGA in combination with MPTP. NDGA was dissolved in 1:4 ethanol:neobee oil (a derivative of coconut oil). MPTP 10 mg/kg free base was administered intraperitoneally three times a day every two hours. Animals with NDGA in combination with MPTP were administered NDGA by oral gavage with 50 and 100mg/kg/day body weight of the drug in 100 microliter volume once a day for 4 days before MPTP and once a day for 3 days after MPTP. On the day of MPTP NDGA was administered to mice 2 hours before the initiation of MPTP. Animals belonging to MPTP and control groups received the vehicle (ethanol:neobee oil, 1:4) whereas the drug alone group received respective doses of NDGA at the same frequency. All animals were sacrificed on the 7th day after MPTP. […]

[2] = system: HRE-luciferase reporter (HT22 hippocampal cell line); assay: HRE-luc reporter assay; format: cell-based; details: Mus musculus, HT-22, 3 h; at 10 µM; read-out: HRE-luc fold activation
[3] = system: VEGF mRNA in immature primary cortical neurons; assay: VEGF mRNA induction, real-time RT-PCR; format: cell-based; details: Fig. 4B
Method: For VEGF gene expression studies, total RNA was isolated from immature primary cortical neurons, pretreated overnight with the indicated concentration of a bioactive compound, using the NucleoSpin RNA II kit (Macherey-Nagel, Bethlehem, PA) according to manufacturer’s protocol. Real-time PCR was performed in triplicate as a duplex reaction using a VEGF (Mm01281449_m1) gene expression assay with a 6-carboxyfluorescein-labeled probe, and a β actin gene expression assay with a VIC-labeled probe (Applied Biosystems, Foster City, CA), so that gene amplification could be normalized to β actin. These experiments were performed using a 7500 Real-time PCR System (Applied Biosystems) using standard PCR protocol and amplification conditions.

[4] = system: C57Bl6 mice, MPTP model of Parkinson's disease; assay: Acute MPTP mouse model: striatal dopamine and metabolites by HPLC; format: in vivo
Method: Acute MPTP-intoxication paradigm was used to test the neuroprotective effects of NDGA using male C57Bl6 mice. In this protocol, 10-week-old C57Bl6 mice (n = 8-10 per group) were divided into four different groups consisting of 1) a control group treated with saline alone; 2) a group treated with MPTP alone; 3) a group treated with NDGA alone and; 4) group treated with NDGA in combination with MPTP. NDGA was dissolved in 1:4 ethanol:neobee oil (a derivative of coconut oil). MPTP 10 mg/kg free base was administered intraperitoneally three times a day every two hours. Animals with NDGA in combination with MPTP were administered NDGA by oral gavage with 50 and 100mg/kg/day body weight of the drug in 100 microliter volume once a day for 4 days before MPTP and once a day for 3 days after MPTP. On the day of MPTP NDGA was administered to mice 2 hours before the initiation of MPTP. Animals belonging to MPTP and control groups received the vehicle (ethanol:neobee oil, 1:4) whereas the drug alone group received respective doses of NDGA at the same frequency. All animals were sacrificed on the 7th day after MPTP.
Striatal levels of dopamine (DA) and its metabolites 3, 4-dihydroxyphenylacetic acid (DOPAC), and homovanillic acid (HVA) were measured after sonication and centrifugation in chilled 0.1 M perchloric acid (PCA, 100 µl/mg tissue) as previously described. Briefly, 15 µl supernatant was isocratically eluted through an 80 x 4.6 mm C18 column (ESA, Inc. Chelmsford, MA) with a mobile phase containing 0.1 M LiH2PO4, 0.85 mM 1-octanesulfonic acid and 10% (v/v) methanol and detected by a 2-channel Coulochem II electrochemical detector (ESA, Inc. Chelmsford, MA). Concentrations of dopamine, DOPAC and HVA are expressed as ng per mg protein. The protein concentrations of tissue homogenates were measured according to BCA assay (Pierce Biotech). For MPP+ measurement NDGA was administered at a dose of 100mg/kg/day once daily for four days followed by a dose on the 5th day 30 minutes before MPTP (30mg/kg free base). Striatal tissues were sonicated and centrifuged in 0.1 M PCA and an aliquot of supernatant was injected onto a Brownlee aquapore x 03-224 cation exchange column (Rainin, Woburn, MA). Samples were eluted isocratically with 20 mM boric acid-sodium borate buffer, pH 7.75, containing 3 mM tetrabutylammonium hydrogen sulfate, 0.25 mM 1-heptanesulfonic acid and 10% isopropanol. MPP^+ levels were detected with a fluorescence detector set by excitation at 295 nm and emission at 375nm.

[5] = NDGA+MPTP group, NDGA 100mg/kg/day oral, 7th day after MPTP

## CC(Cc1ccc(O)c(O)c1)C(C)Cc1ccc(O)c(O)c1 (centres unmarked) [compound 28, 4,4'-(2,3-dimethylbutane-1,4-diyl)dibenzene-1,2-diol]
[1]
  MPTP-induced loss of total (Nissl-positive) and TH-immunopositive neurons in SNpc: significant attenuation
[2]
  fold induction at 10 µM: 2 ± 0.2
[3]
  VEGF induction potency relative to FG-4592: at least 2 times
[4]; NDGA 50mg/kg/day
  protection against MPTP-induced loss of striatal dopamine, DOPAC and HVA: not
[4]; NDGA 100mg/kg/day
  protection against MPTP-induced loss of striatal dopamine, DOPAC and HVA: protected
[4]; NDGA alone group, oral gavage
  Striatal DOPAC: 7.59 ± 1.35 ng/mg protein
  Striatal DOPAMINE: 88.4 ± 6.2 ng/mg protein
  Striatal HVA: 7.5 ± 1.66 ng/mg protein
[4]; [5]
  Striatal DOPAC: 6.04 ± 1.14 ng/mg protein
  Striatal DOPAMINE: 55.3 ± 5.7 ng/mg protein
  Striatal HVA: 7.4 ± 0.96 ng/mg protein
